We go through seven molecules from article PMC8219897 (Water Research X, 2021).

Series [1] concerns human placental JEG-3 cells. Particulars: read-out: EC50, cytotoxic effects, ref Perez-Albaladejo et al. (2019); cited from earlier work.
Series [2] deals with Aliivibrio fischeri. The format is cell-based. Particulars: present study.
For series [3], the system named is aquatic life. Particulars: proposed by ECHA; ref ECHA; cited from earlier work.
The subject of series [4] is P450 aromatase. The following applies: JEG-3 cells, at 20 µM; ref Perez-Albaladejo et al. (2019); cited from earlier work.
The conditions of series [5]: muscle, liver and gill tissue of wild fish, Panlong River; ref Wang et al. 2016; cited from earlier work.
Series [6] deals with T1, human estrogen receptor alpha (ERα) (Homo sapiens, UniProt P03372).
T1 sequence (P03372 1-595): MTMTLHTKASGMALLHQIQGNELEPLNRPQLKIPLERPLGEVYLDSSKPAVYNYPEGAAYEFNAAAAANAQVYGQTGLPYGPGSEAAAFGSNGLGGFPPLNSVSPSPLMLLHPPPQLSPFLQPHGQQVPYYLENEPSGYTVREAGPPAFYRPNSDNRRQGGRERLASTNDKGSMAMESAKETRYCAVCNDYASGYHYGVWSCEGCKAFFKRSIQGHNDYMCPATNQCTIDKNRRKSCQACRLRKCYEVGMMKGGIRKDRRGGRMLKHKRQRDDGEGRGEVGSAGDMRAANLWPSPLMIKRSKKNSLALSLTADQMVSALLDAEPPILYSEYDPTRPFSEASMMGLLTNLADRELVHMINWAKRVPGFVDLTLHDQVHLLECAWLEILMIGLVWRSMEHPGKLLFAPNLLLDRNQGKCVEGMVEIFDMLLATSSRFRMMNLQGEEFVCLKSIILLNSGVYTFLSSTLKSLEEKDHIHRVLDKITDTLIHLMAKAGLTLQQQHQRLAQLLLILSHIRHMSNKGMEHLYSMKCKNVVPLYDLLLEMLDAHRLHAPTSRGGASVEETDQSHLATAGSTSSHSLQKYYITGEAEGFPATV
As to the kind of experiment: Yeast estrogen screen. Particulars: for Estrogenic effects in single testing (in words): single compounds, Figure SI 5B. The class given is cell-based.

Series [7] relates to zebrafish embryos. Particulars: ref McCormick et al. (2011); cited from earlier work.
The conditions of series [8]: aqueous solution, pseudo-first-order kinetic; ref Kovacic et al. 2019; cited from earlier work.
The subject of series [9] is ERα. The following applies: read-out: IC50, competitive binding to ERα; ref Nakagawa and Suzuki 2001; cited from earlier work.
Series [10] concerns MCF-7 cells. Particulars: read-out: EC50, estrogen-like effects, ref Kitamura et al. 2005; cited from earlier work.
Series [11] has as its system NIH3T3 cells. Particulars: read-out: EC50, anti-androgenic effects, ref Kitamura et al. 2005; cited from earlier work.
The subject of series [12] is estrogen-related receptor. The following applies: recombined yeast strains; ref Li et al. (2010); cited from earlier work.
Setting [13] is: leachates of UV irradiated coating B.

Molecules are shown by their SMILES. Converted amounts (≈) assume the structure as drawn. Like-named read-outs stand apart in the source and are kept apart here.

Turning to `CC(C)(c1ccccc1)c1ccc(O)cc1` [4CP, 4-cumylphenol], the EC50 in [1] was 65 µM. Besides, the “Potency compared to BPA in the luminescent bacteria assay” value in series [2] was “more potent”. In series [3], the “Predicted no effect concentration (PNEC), freshwater” value was 14.2 µg/L and the “Predicted no effect concentration (PNEC), freshwater sediments” value is recorded as 3.58 µg/g dry weight. Also, the “Increase of P450 aromatase activity” value in [4] is 1.3 fold. Further, the “Bioconcentration factor (BCF)” value in series [5] was “up to 10”. For the same molecule, in series [6], the concentration for a half-maximal effect (EC50) is 0.212 µM. Moreover, in [6] (setting [13]), the “Mean contribution to estrogenicity of the quantified substances (toxic units)” value (“Mean contribution to estrogenicity” for short) was 1%.

Turning to `COc1ccc(C(C)(C)c2ccc(O)cc2)cc1` [BPA-I11, 4-[1-(4-methoxyphenyl)-1-methylethyl]phenol], the “Potency compared to BPA in the luminescent bacteria assay” value in series [2] is “more potent”. Besides, the midpoint of the response in series [6], the EC50, lay at 0.666 µM. In series [6] (setting [13]), the “Mean contribution to estrogenicity” value is 2%. Besides, the “Half maximal lethal concentration” value in [7] was “up to 0.66 mg/l”.

Consider `CC(C)(c1ccc(O)cc1)c1ccc(O)cc1` [BPA, bisphenol A], for which, in [8], the “Half-life time of degradation under UV irradiation” value is “about 6 h”. Also, in series [9], the IC50 is 10 µM. In series [3], the “Predicted no effect concentration (PNEC), freshwater” value was 18 µg/L. In addition, the “Predicted no effect concentration (PNEC), freshwater sediments” value in [3] is given as 1.2 µg/g dry weight. For the same molecule, the “Mean contribution to estrogenicity” value in series [6] (leachates of UV irradiated coating A) was 3%; in series [6] (setting [13]) it was 16%.

On to `Oc1ccccc1-c1ccccc1` [2PP, 2-phenylphenol], for which the “Estrogenic effects in single testing (in words)” value (“Estrogenic effects” for short) in series [6] is reported as “showed estrogenic potential”.

As for `CC(C)(c1ccc(OCC(O)CO)cc1)c1ccc(OCC(O)CO)cc1` (stereo not drawn) [Bis-HPPP, bisphenol A bis(2,3-dihydroxypropyl) ether], in [6], the “Estrogenic effects” value is listed as “not estrogenic”.

Consider `CC(C)(c1ccc(O)cc1)c1ccc(O)c(O)c1` [BPA-I10, 5-hydroxybisphenol A], for which the EC50 was 1.8 µM in [10]; 14 µM in [11]; 31 µM in series [6] (read-out: EC50, yeast estrogen screen, single compound, present results). Further, in [9], the IC50 was 50 µM. The “EC50, yeast estrogen screen” value in series [6] (single compound, present results) stood at 7.5 µg/mL (≈ 30.7 µM). Besides, in [6], the “Estrogenic effects” value is reported as “showed estrogenic potential”.

Take `CC(C)(C)c1ccccc1O` [2-tert-butylphenol]: in series [12], the “Effect on estrogen-related receptor gamma” value is reported as “inverse agonistic effects”.

One may read the EC50 as the concentration at which the effect is half-maximal. Broadly, the IC50 is the concentration at which inhibition is half-maximal.
